We go through 15 compounds from US20260285888A1, “HETEROCYCLIC COMPOUND AND USE THEREOF” (OTSUKA PHARMACEUTICAL CO., LTD., priority 2023, published 2026).

The series is described as follows: Study for confirmation of conversion to brexpiprazole in a buffer (stability of the evaluation compounds). The note with it: in buffer, average of duplicate; for Concentration of brexpiprazole formed: 60-minute reaction sample; for Concentration of evaluation compound decreased: decrease in 60-minute vs 0-minute reaction sample. Type of series: physicochemical. As to the method:
The conversion from the evaluation compounds to brexpiprazole in a buffer (i.e., the stability of the evaluation compounds) was evaluated.
The Example 1 compound was dissolved in acetonitrile/water (1:1, v/v) to 10 mmol/L and further diluted with acetonitrile/water (1:1, v/v) to 100 μmol/L for use.
The other Example compounds and the Reference Example 5 compound to Reference Example 7 compound were each dissolved in DMSO to 10 mmol/L and further diluted with acetonitrile to 100 μmol/L for use, except for the following compounds.
The compounds of Examples 52, 95, 96, 117, and 130 (EX 52, EX 95, EX 96, EX 117, and EX 130) were dissolved in acetonitrile/water (8:2, v/v) to 10 mmol/L and further diluted with acetonitrile to 100 μmol/L for use.
The compound of Example 97 (EX 97) was dissolved in acetonitrile/water (8:2, v/v) to 10 mmol/L and further diluted with acetonitrile/water (8:2, v/v) to 100 μmol/L for use.
The compounds of Examples 15 and 116 (EX 15 and EX 116) were dissolved in DMSO to 1 mmol/L and further diluted with acetonitrile to 100 μmol/L for use.
The reaction was conducted by preparing each reaction solution such that the final concentration of each component was as follows. The test was conducted in duplicate.
For the compounds of Examples 1 to 8, 10 to 19, 26 to 27, 37, 50, 87 to 89, 91, 116, 121, 123, 150, and 151 (EX 1 to EX 8, EX 10 to EX 19, EX 26 to EX 27, EX 37, EX 50, EX 87 to EX 89, EX 91, EX 116, EX 121, EX 123, EX 150, and EX 151), and the compounds of Reference Examples 5 to 7 (REX 5 to REX 7), the reaction solution without the evaluation compound (198 μl) was pre-incubated at 37° C. for 3 minutes, and then each of the evaluation compound solutions (2 μl) was added and stirred; thereafter, the reaction was started at 37° C. At 0 minutes or 60 minutes after the start of the reaction, the reaction was stopped by adding and stirring a reaction stop solution (1000 μl) composed of acetonitrile/isopropanol (4:1, v/v) containing internal standard substances. However, the 0-minute reaction sample (198 μl) was prepared by adding the evaluation compound (2 μl) after adding the reaction stop solution (1000 μl). The samples after stopping the reaction were used as the measurement samples. Calibration curve samples with the same composition were prepared (final concentrations of the evaluation compounds and brexpiprazole: 0.01, 0.1, and 1 μmol/L, with the proviso that for the evaluation compounds only, the 0-minute reaction samples were also used as calibration curve samples for 1 μmol/L).
For the compounds of Examples 24 to 25, 28 to 29, 32 to 36, 40 to 49, 51 to 60, 62 to 64, 66 to 77, 80 to 86, 90, 92 to 111, 113, 115, 117 to 120, 122, 124 to 130, 132 to 147, and 152 to 160 (EX 24 to EX 25, EX 28 to EX 29, EX 32 to EX 36, EX 40 to EX 49, EX 51 to EX 60, EX 62 to EX 64, EX 66 to EX 77, EX 80 to EX 86, EX 90, EX 92 to EX 111, EX 113, EX 115, EX 117 to EX 120, EX 122, EX 124 to EX 130, EX 132 to EX 147, and EX 152 to EX 160), the reaction solution without the evaluation compound (148.5 μl) was pre-incubated at 37° C. for 3 minutes, and then each of the evaluation compound solutions (1.5 μl) was added and stirred; thereafter, the reaction was started at 37° C. At 0 minutes or 60 minutes after the start of the reaction, the reaction was stopped by adding and stirring a reaction stop solution (600 μl) composed of acetonitrile/isopropanol (4:1, v/v) containing internal standard substances. However, the 0-minute reaction sample (148.5 μl) was prepared by adding the evaluation compound (1.5 μl) after adding the reaction stop solution (600 μl). The samples after stopping the reaction were used as the measurement samples. Calibration curve samples with the same composition were prepared (final concentrations of the evaluation compounds and brexpiprazole: 0.01, 0.1, and 1 μmol/L, with the proviso that for the evaluation compounds only, the 0-minute reaction samples were also used as calibration curve samples for 1 μmol/L). […]

Regarding `CC(C)(C)OC(=O)CCCC(=O)OCOP(=O)([O-])OC[N+]1(CCCCOc2ccc3ccc(=O)[nH]c3c2)CCN(c2cccc3sccc23)CC1` [EX 69, (4-(benzo[b]thiophen-4-yl)-1-(4-((2-oxo-1,2-dihydroquinolin-7-yl)oxy)butyl)piperazin-1-ium-1-yl)methyl (((5-(tert-butoxy)-5-oxopentanoyl)oxy)methyl) phosphate], the “Concentration of brexpiprazole formed” value amounted to 0 nM and the “Concentration of evaluation compound decreased” value was -10 nM.
For `COc1ccc(COC(=O)CC(C)(C)CC(=O)OCOP(=O)([O-])OC[N+]2(CCCCOc3ccc4ccc(=O)[nH]c4c3)CCN(c3cccc4sccc34)CC2)cc1` [EX 72, (4-(benzo[b]thiophen-4-yl)-1-(4-((2-oxo-1,2-dihydroquinolin-7-yl)oxy)butyl)piperazin-1-ium-1-yl)methyl (((5-((4-methoxybenzyl)oxy)-3,3-dimethyl-5-oxopentanoyl)oxy)methyl) phosphate], in that order: 0 nM and 150 nM.
On the same counts, the results for `CC(C)NC(=O)CCCC(=O)OCOP(=O)([O-])OC[N+]1(CCCCOc2ccc3ccc(=O)[nH]c3c2)CCN(c2cccc3sccc23)CC1` [EX 73, (4-(benzo[b]thiophen-4-yl)-1-(4-((2-oxo-1,2-dihydroquinolin-7-yl)oxy)butyl)piperazin-1-ium-1-yl)methyl (((5-(isopropylamino)-5-oxopentanoyl)oxy)methyl) phosphate] are 0 nM and 130 nM.
As to `CC1(C)OCC(COC(=O)CCCCC(=O)OCOP(=O)([O-])OC[N+]2(CCCCOc3ccc4ccc(=O)[nH]c4c3)CCN(c3cccc4sccc34)CC2)CO1` [EX 75, (4-(benzo[b]thiophen-4-yl)-1-(4-((2-oxo-1,2-dihydroquinolin-7-yl)oxy)butyl)piperazin-1-ium-1-yl)methyl (((6-((2,2-dimethyl-1.3-dioxan-5-yl)methoxy)-6-oxohexanoyl)oxy)methyl) phosphate], the “Concentration of brexpiprazole formed” value was found to be 0 nM and the “Concentration of evaluation compound decreased” value worked out at 70 nM.
For `CC(C)NC(=O)CCCCCCCCC(=O)OCOP(=O)([O-])OC[N+]1(CCCCOc2ccc3ccc(=O)[nH]c3c2)CCN(c2cccc3sccc23)CC1` [EX 76, (4-(benzo[b]thiophen-4-yl)-1-(4-((2-oxo-1,2-dihydroquinolin-7-yl)oxy)butyl)piperazin-1-ium-1-yl)methyl (((10-(isopropylamino)-10-oxodecanoyl)oxy)methyl) phosphate], in that order: 0 nM and 0 nM.
Take `O=C(OCCCCCCOP(=O)([O-])OC[N+]1(CCCCOc2ccc3ccc(=O)[nH]c3c2)CCN(c2cccc3sccc23)CC1)c1ccc([N+](=O)[O-])cc1` [EX 85, (4-(benzo[b]thiophen-4-yl)-1-(4-((2-oxo-1,2-dihydroquinolin-7-yl)oxy)butyl)piperazin-1-ium-1-yl)methyl (6-((4-nitrobenzoyl)oxy)hexyl) phosphate]: the “Concentration of brexpiprazole formed” value came to 0 nM and the “Concentration of evaluation compound decreased” value came out at 40 nM.
For `O=c1ccc2ccc(OCCCC[N+]3(COP(=O)([O-])OC[C@H]4CC[C@H](CO)CC4)CCN(c4cccc5sccc45)CC3)cc2[nH]1` [EX 86, (4-(benzo[b]thiophen-4-yl)-1-(4-((2-oxo-1,2-dihydroquinolin-7-yl)oxy)butyl)piperazin-1-ium-1-yl)methyl (((1r,4r)-4-(hydroxymethyl)cyclohexyl)methyl) phosphate], in that order: 0 nM and 50 nM.
Take `COP(=O)([O-])OC[N+]1(CCCCOc2ccc3ccc(=O)[nH]c3c2)CCN(c2cccc3sccc23)CC1` [EX 87, (4-(benzo[b]thiophen-4-yl)-1-(4-((2-oxo-1,2-dihydroquinolin-7-yl)oxy)butyl)piperazin-1-ium-1-yl)methyl methyl phosphate]: the “Concentration of brexpiprazole formed” value turned out to be 0 nM and the “Concentration of evaluation compound decreased” value was 0 nM.
Turning to `CCCOP(=O)([O-])OC[N+]1(CCCCOc2ccc3ccc(=O)[nH]c3c2)CCN(c2cccc3sccc23)CC1` [EX 88, (4-(benzo[b]thiophen-4-yl)-1-(4-((2-oxo-1,2-dihydroquinolin-7-yl)oxy)butyl)piperazin-1-ium-1-yl)methyl propyl phosphate], the “Concentration of brexpiprazole formed” value was 0 nM and the “Concentration of evaluation compound decreased” value was -10 nM.
As to `CCCCOP(=O)([O-])OC[N+]1(CCCCOc2ccc3ccc(=O)[nH]c3c2)CCN(c2cccc3sccc23)CC1` [EX 89, (4-(benzo[b]thiophen-4-yl)-1-(4-((2-oxo-1,2-dihydroquinolin-7-yl)oxy)butyl)piperazin-1-ium-1-yl)methyl butyl phosphate], the “Concentration of brexpiprazole formed” value was determined as 0 nM and the “Concentration of evaluation compound decreased” value is -70 nM.
For `CCOCCOC(=O)[C@@H](C)OP(=O)([O-])OC[N+]1(CCCCOc2ccc3ccc(=O)[nH]c3c2)CCN(c2cccc3sccc23)CC1` [EX 109, (R)-(4-(benzo[b]thiophen-4-yl)-1-(4-((2-oxo-1.2-dihydroquinolin-7-yl)oxy)butyl)piperazin-1-ium-1-yl)methyl (1-(2-ethoxyethoxy)-1-oxopropan-2-yl) phosphate], in that order: 0 nM and -20 nM.
On the same counts, the results for `O=c1ccc2ccc(OCCCC[N+]3(COP(=O)([O-])OCC(F)F)CCN(c4cccc5sccc45)CC3)cc2[nH]1` [EX 115, (4-(benzo[b]thiophen-4-yl)-1-(4-(2-oxo-1,2-dihydroquinolin-7-yl)oxy)butyl)piperazin-1-ium-1-yl)methyl (2,2-difluoroethyl) phosphate] are 0 nM and 50 nM.
With `CCCC(=O)OCOP(=O)([O-])OC[N+]1(CCCCOc2ccc3ccc(=O)[nH]c3c2)CCN(c2cccc3sccc23)CC1` [EX 121], the “Concentration of brexpiprazole formed” value came to 0 nM and the “Concentration of evaluation compound decreased” value was 90 nM.
On the same counts, the results for `CCC(C)(C)C(=O)OCOP(=O)([O-])OC[N+]1(CCCCOc2ccc3ccc(=O)[nH]c3c2)CCN(c2cccc3sccc23)CC1` [EX 122, (4-(benzo[b]thiophen-4-yl)-1-(4-((2-oxo-1,2-dihydroquinolin-7-yl)oxy)butyl)piperazin-1-ium-1-yl)methyl (((2,2-dimethylbutanoyl)oxy)methyl) phosphate] are 0 nM and 50 nM.
Take `O=C(OCOP(=O)([O-])OC[N+]1(CCCCOc2ccc3ccc(=O)[nH]c3c2)CCN(c2cccc3sccc23)CC1)C12CC3CC(CC(C3)C1)C2` [EX 124, (((1s,3s)-adamantane-1-carbonyl)oxy)methyl ((4-(benzo[b]thiophen-4-yl)-1-(4-((2-oxo-1,2-dihydroquinolin-7-yl)oxy)butyl)piperazin-1-ium-1-yl)methyl) phosphate]: the “Concentration of brexpiprazole formed” value was found to be 0 nM and the “Concentration of evaluation compound decreased” value worked out at 100 nM.
